Measured values published in ChEMBL document CHEMBL4715694, “Discovery of novel tetrahydroisoquinoline-containing pyrimidines as ALK inhibitors” (Bioorg Med Chem, 2016).

Assays:
in vivo [1] = conditions: rat, po, 10 mg/kg
in vivo [2] = conditions: rat, po, 10 mg/kg; remark: listed apart in the source
in vitro [3] = conditions: rat, liver microsomes
in vitro [4] = conditions: human, liver microsomes

With `Cc1cc(Nc2ncc(Cl)c(Nc3ccccc3S(=O)(=O)C(C)C)n2)c(OC(C)C)cc1C1CCNCC1` [CERITINIB] the Cmax (in vivo [1]) was 90 ng/mL, the AUC (in vivo [2]) was 1400 ng·h/mL and the remaining at 0.5 h, 1 µM (in vitro [3]) was 98%. It also gave a remaining at 0.5 h, 1 µM (in vitro [4]) of 88%.
